# According to patent US11951108B2, “Combination therapy for treating cancer” (Epizyme, Inc., priority 2016, dated 2024):
# Read-outs that look alike come from different tables or passages of the source.
# Columns and labels:
# [1] = test system: A2780; assay: In vitro combination study, ovarian cancer cell line A2780
# [2] = test system: COV504
# [3] = test system: COV362; assay: In vitro combination study, ovarian cancer cell line COV362; settings: COV362; 4+3 model
# [4] = test system: ES-2; assay: In vitro combination study, ovarian cancer cell line ES-2; settings: 4+3 model
# [5] = test system: RMUGS*; assay: In vitro combination study, ovarian cancer cell line RMUGS; settings: 7+3 model
# [6] = test system: SKOV3; assay: In vitro combination study, ovarian cancer cell line SKOV3; settings: 4+3 model
# [7] = test system: HCC1419; assay: In vitro combination study, breast cancer cell line HCC1419; settings: ER/PR −/−, HER2 +, 7 day pre-treatment + 6 day co-treatment
# [8] = test system: COV644*; assay: In vitro combination study, ovarian cancer cell line COV644; settings: COV644*; 7+3 model
# [9] = test system: KURAMOCHI; assay: In vitro combination study, ovarian cancer cell line KURAMOCHI; settings: KURAMOCHI; 4+3 model
# [10] = test system: CAOV-3; assay: In vitro combination study, ovarian cancer cell line CAOV-3; format: cell-based; settings: 4+3 model
# [11] = test system: TOV112D; assay: In vitro combination study, ovarian cancer cell line TOV112D; settings: 4+3 model
# [12] = test system: JH)S-4; assay: In vitro combination study, ovarian cancer cell line JH)S-4; settings: 4+3 model
# [13] = test system: OVISE; assay: In vitro combination study, ovarian cancer cell line OVISE; settings: OVISE; 4+3 model
# [14] = test system: OVMANA; assay: In vitro combination study, ovarian cancer cell line OVMANA; settings: OVMANA; 4+3 model
# [15] = test system: TOV21G; assay: In vitro combination study, ovarian cancer cell line TOV21G; format: cell-based; settings: 4+3 model
# [16] = test system: SNU840; assay: In vitro combination study, ovarian cancer cell line SNU840; settings: SNU840; 4+3 model
# [17] = test system: OV-90; assay: In vitro combination study, ovarian cancer cell line OV-90; settings: OV-90; 4+3 model
# [18] = test system: OVSAHO; assay: In vitro combination study, ovarian cancer cell line OVSAHO; settings: 4+3 model
# [19] = test system: CAMA-1; assay: In vitro combination study, breast cancer cell line CAMA-1; format: cell-based; settings: ER/PR +/−, HER2 +, 7 day pre-treatment + 6 day co-treatment
# [20] = test system: DU4475; assay: In vitro combination study, breast cancer cell line DU4475; settings: ER/PR −/−, HER2 −, 7 day pre-treatment + 6 day co-treatment
# [21] = test system: BT474; assay: In vitro combination study, breast cancer cell line BT474; settings: ER/PR +/+, HER2 +, 7 day pre-treatment + 6 day co-treatment
# [22] = test system: SUM159PT; assay: In vitro combination study, breast cancer cell line SUM159PT; settings: ER/PR −/−, HER2 −, 7 day pre-treatment + 6 day co-treatment
# [23] = test system: SUM52PE; assay: In vitro combination study, breast cancer cell line SUM52PE; settings: ER/PR −/−, HER2 −, 7 day pre-treatment + 6 day co-treatment
# [24] = test system: MDA-MB-175VII; assay: In vitro combination study, breast cancer cell line MDA-MB-175VII; settings: ER/PR +/+, HER2 +, 7 day pre-treatment + 6 day co-treatment
# [25] = test system: BT549; assay: In vitro combination study, breast cancer cell line BT549; settings: ER/PR −/−, HER2 −, 7 day pre-treatment + 6 day co-treatment
molecule,measurement,setting,value
N.N.O=C([O-])C1(C(=O)[O-])CCC1.[Pt+2] [Carboplatin],Synergy or antagonism of second agent with tazemetostat (IC50 shift of second agent),"[1]; A2780, 4+3 model",B (Synergy > 4× IC50 shift)
C/C=C1\NC(=O)[C@H]2CSSCC/C=C/[C@H](CC(=O)N[C@H](C(C)C)C(=O)N2)OC(=O)[C@H](C(C)C)NC1=O [Romidepsin],Synergy or antagonism of second agent with tazemetostat (IC50 shift of second agent),[2],C (key: B: Synergy > 4× IC50 shift; Synergy > 2× IC50 shift; No Effect; Antagonism; X: Not Tested)
same,Synergy or antagonism of second agent with tazemetostat (IC50 shift of second agent),[3],C (Synergy > 2× IC50 shift)
Cc1ccc(NC(=O)c2ccc(CN3CCN(C)CC3)cc2)cc1Nc1nccc(-c2cccnc2)n1 [Imatinib],Synergy or antagonism of second agent with tazemetostat (IC50 shift of second agent),[4],A (Antagonism)
Nc1ccn([C@@H]2O[C@H](CO)[C@@H](O)C2(F)F)c(=O)n1 [Gemcitabine],Synergy or antagonism of second agent with tazemetostat (IC50 shift of second agent),"[2]; COV504, 4+3 model",C (Synergy > 2× IC50 shift)
same,Synergy or antagonism of second agent with tazemetostat (IC50 shift of second agent),[5],B (Synergy > 4× IC50 shift)
same,Synergy or antagonism of second agent with tazemetostat (IC50 shift of second agent),[6],C (Synergy > 2× IC50 shift)
same,Synergy or antagonism of second agent with tazemetostat (IC50 shift of second agent),"[1]; A2780, 4+3 model",B (Synergy > 4× IC50 shift)
same,Synergy or antagonism of second agent with tazemetostat (IC50 shift of second agent),[7],C (Synergy > 2× IC50 shift)
CCCS(=O)(=O)Nc1ccc(F)c(C(=O)c2c[nH]c3ncc(-c4ccc(Cl)cc4)cc23)c1F [Vemurafenib],Synergy or antagonism of second agent with tazemetostat (IC50 shift of second agent),[4],C (Synergy > 2× IC50 shift)
AZD5363,Synergy or antagonism of second agent with tazemetostat (IC50 shift of second agent),[1],B (key: B: Synergy > 4× IC50 shift; Synergy > 2× IC50 shift; No Effect; Antagonism; X: Not Tested)
COc1cc2c(Oc3ccc4[nH]c(C)cc4c3F)ncnc2cc1OCCCN1CCCC1 [AZD2171],Synergy or antagonism of second agent with tazemetostat (IC50 shift of second agent),"[2]; COV504, 4+3 model",B (Synergy > 4× IC50 shift)
same,Synergy or antagonism of second agent with tazemetostat (IC50 shift of second agent),[5],C (Synergy > 2× IC50 shift)
same,Synergy or antagonism of second agent with tazemetostat (IC50 shift of second agent),[8],C (Synergy > 2× IC50 shift)
same,Synergy or antagonism of second agent with tazemetostat (IC50 shift of second agent),[9],C (Synergy > 2× IC50 shift)
same,Synergy or antagonism of second agent with tazemetostat (IC50 shift of second agent),"[1]; A2780, 4+3 model",C (Synergy > 2× IC50 shift)
C=CCn1c(=O)c2cnc(Nc3ccc(N4CCN(C)CC4)cc3)nc2n1-c1cccc(C(C)(C)O)n1 [MK1775],Synergy or antagonism of second agent with tazemetostat (IC50 shift of second agent),[10],C (Synergy > 2× IC50 shift)
same,Synergy or antagonism of second agent with tazemetostat (IC50 shift of second agent),[11],C (Synergy > 2× IC50 shift)
same,Synergy or antagonism of second agent with tazemetostat (IC50 shift of second agent),"[2]; COV504, 4+3 model",C (Synergy > 2× IC50 shift)
same,Synergy or antagonism of second agent with tazemetostat (IC50 shift of second agent),[5],B (Synergy > 4× IC50 shift)
same,Synergy or antagonism of second agent with tazemetostat (IC50 shift of second agent),[8],B (Synergy > 4× IC50 shift)
same,Synergy or antagonism of second agent with tazemetostat (IC50 shift of second agent),[6],C (Synergy > 2× IC50 shift)
same,Synergy or antagonism of second agent with tazemetostat (IC50 shift of second agent),[9],C (Synergy > 2× IC50 shift)
same,Synergy or antagonism of second agent with tazemetostat (IC50 shift of second agent),"[1]; A2780, 4+3 model",B (Synergy > 4× IC50 shift)
same,Synergy or antagonism of second agent with tazemetostat (IC50 shift of second agent),[12],C (Synergy > 2× IC50 shift)
Cc1[nH]c2ccccc2c1CCNCc1ccc(/C=C/C(=O)NO)cc1 [Panobinostat],Synergy or antagonism of second agent with tazemetostat (IC50 shift of second agent),[10],C (Synergy > 2× IC50 shift)
same,Synergy or antagonism of second agent with tazemetostat (IC50 shift of second agent),[13],C (Synergy > 2× IC50 shift)
same,Synergy or antagonism of second agent with tazemetostat (IC50 shift of second agent),[11],C (Synergy > 2× IC50 shift)
same,Synergy or antagonism of second agent with tazemetostat (IC50 shift of second agent),"[2]; COV504, 4+3 model",B (Synergy > 4× IC50 shift)
same,Synergy or antagonism of second agent with tazemetostat (IC50 shift of second agent),[14],C (Synergy > 2× IC50 shift)
same,Synergy or antagonism of second agent with tazemetostat (IC50 shift of second agent),[8],C (Synergy > 2× IC50 shift)
same,Synergy or antagonism of second agent with tazemetostat (IC50 shift of second agent),[6],B (Synergy > 4× IC50 shift)
same,Synergy or antagonism of second agent with tazemetostat (IC50 shift of second agent),[15],C (Synergy > 2× IC50 shift)
same,Synergy or antagonism of second agent with tazemetostat (IC50 shift of second agent),[9],C (Synergy > 2× IC50 shift)
same,Synergy or antagonism of second agent with tazemetostat (IC50 shift of second agent),"[1]; A2780, 4+3 model",B (Synergy > 4× IC50 shift)
same,Synergy or antagonism of second agent with tazemetostat (IC50 shift of second agent),[16],C (Synergy > 2× IC50 shift)
same,Synergy or antagonism of second agent with tazemetostat (IC50 shift of second agent),[17],C (Synergy > 2× IC50 shift)
same,Synergy or antagonism of second agent with tazemetostat (IC50 shift of second agent),[3],C (Synergy > 2× IC50 shift)
same,Synergy or antagonism of second agent with tazemetostat (IC50 shift of second agent),[12],C (Synergy > 2× IC50 shift)
same,Synergy or antagonism of second agent with tazemetostat (IC50 shift of second agent),[18],C (Synergy > 2× IC50 shift)
Cc1cc(Nc2ccc(NC(=O)c3ccc(Nc4ccnc5ccccc45)cc3)cc2)nc(N)n1 [SGI1027],Synergy or antagonism of second agent with tazemetostat (IC50 shift of second agent),[19],C (Synergy > 2× IC50 shift)
same,Synergy or antagonism of second agent with tazemetostat (IC50 shift of second agent),[20],A (Antagonism)
same,Synergy or antagonism of second agent with tazemetostat (IC50 shift of second agent),[21],B (Synergy > 4× IC50 shift)
O=C(c1cc(Cc2n[nH]c(=O)c3ccccc23)ccc1F)N1CCN(C(=O)C2CC2)CC1 [Olaparib],Synergy or antagonism of second agent with tazemetostat (IC50 shift of second agent),"[1]; A2780, 4+3 model",B (Synergy > 4× IC50 shift)
same,Synergy or antagonism of second agent with tazemetostat (IC50 shift of second agent),[22],C (Synergy > 2× IC50 shift)
"NC(=O)c1ccc(I)c([N+](=O)[O-])c1 [Iniparib (BSI 201), Iniparib]",Synergy or antagonism of second agent with tazemetostat (IC50 shift of second agent),[19],C (Synergy > 2× IC50 shift)
same,Synergy or antagonism of second agent with tazemetostat (IC50 shift of second agent),[23],C (Synergy > 2× IC50 shift)
same,Synergy or antagonism of second agent with tazemetostat (IC50 shift of second agent),[7],C (Synergy > 2× IC50 shift)
Cc1nc(NC(=O)N2CCC[C@H]2C(N)=O)sc1-c1ccnc(C(C)(C)C(F)(F)F)c1 [BYL719],Synergy or antagonism of second agent with tazemetostat (IC50 shift of second agent),[10],C (Synergy > 2× IC50 shift)
same,Synergy or antagonism of second agent with tazemetostat (IC50 shift of second agent),[13],C (Synergy > 2× IC50 shift)
same,Synergy or antagonism of second agent with tazemetostat (IC50 shift of second agent),[11],C (Synergy > 2× IC50 shift)
same,Synergy or antagonism of second agent with tazemetostat (IC50 shift of second agent),"[2]; COV504, 4+3 model",B (Synergy > 4× IC50 shift)
same,Synergy or antagonism of second agent with tazemetostat (IC50 shift of second agent),[8],C (Synergy > 2× IC50 shift)
same,Synergy or antagonism of second agent with tazemetostat (IC50 shift of second agent),[6],C (Synergy > 2× IC50 shift)
same,Synergy or antagonism of second agent with tazemetostat (IC50 shift of second agent),"[1]; A2780, 4+3 model",B (Synergy > 4× IC50 shift)
same,Synergy or antagonism of second agent with tazemetostat (IC50 shift of second agent),[16],B (Synergy > 4× IC50 shift)
CS(=O)(=O)N1CCN(Cc2cc3nc(-c4cccc5[nH]ncc45)nc(N4CCOCC4)c3s2)CC1 [Pictilisib],Synergy or antagonism of second agent with tazemetostat (IC50 shift of second agent),[10],C (Synergy > 2× IC50 shift)
same,Synergy or antagonism of second agent with tazemetostat (IC50 shift of second agent),[14],C (Synergy > 2× IC50 shift)
same,Synergy or antagonism of second agent with tazemetostat (IC50 shift of second agent),[8],C (Synergy > 2× IC50 shift)
same,Synergy or antagonism of second agent with tazemetostat (IC50 shift of second agent),"[1]; A2780, 4+3 model",C (Synergy > 2× IC50 shift)
same,Synergy or antagonism of second agent with tazemetostat (IC50 shift of second agent),[16],C (Synergy > 2× IC50 shift)
CCc1cnn2c(NCc3ccc[n+]([O-])c3)cc(N3CCCC[C@H]3CCO)nc12 [Dinaciclib],Synergy or antagonism of second agent with tazemetostat (IC50 shift of second agent),[19],A (Antagonism)
CC1(C)CCC(CN2CCN(c3ccc(C(=O)NS(=O)(=O)c4ccc(NCC5CCOCC5)c([N+](=O)[O-])c4)c(Oc4cnc5[nH]ccc5c4)c3)CC2)=C(c2ccc(Cl)cc2)C1 [ABT199],Synergy or antagonism of second agent with tazemetostat (IC50 shift of second agent),[11],C (Synergy > 2× IC50 shift)
same,Synergy or antagonism of second agent with tazemetostat (IC50 shift of second agent),"[1]; A2780, 4+3 model",C (Synergy > 2× IC50 shift)
CO[C@H]1C[C@@H]2CC[C@@H](C)[C@@](O)(O2)C(=O)C(=O)N2CCCC[C@H]2C(=O)O[C@H]([C@H](C)C[C@@H]2CC[C@@H](OCCO)[C@H](OC)C2)CC(=O)[C@H](C)/C=C(\C)[C@@H](O)[C@@H](OC)C(=O)[C@H](C)C[C@H](C)/C=C/C=C/C=C/1C [Everolimus],Synergy or antagonism of second agent with tazemetostat (IC50 shift of second agent),[24],C (Synergy > 2× IC50 shift)
same,Synergy or antagonism of second agent with tazemetostat (IC50 shift of second agent),[22],C (Synergy > 2× IC50 shift)
same,Synergy or antagonism of second agent with tazemetostat (IC50 shift of second agent),[7],C (Synergy > 2× IC50 shift)
same,Synergy or antagonism of second agent with tazemetostat (IC50 shift of second agent),[25],A (Antagonism)
